According to ChEMBL document CHEMBL1135641, “Antitumor agents. 217. Curcumin analogues as novel androgen receptor antagonists with potential as anti-prostate cancer agents” (J Med Chem, 2002):

Tests used:
[1] = molecular target: T1, Androgen receptor (Homo sapiens) (UniProt P10275); assay: Antagonistic activity against Androgen receptor in DU-145 human prostate cancer cells; type: functional, cell-based
T1 sequence (whole entry): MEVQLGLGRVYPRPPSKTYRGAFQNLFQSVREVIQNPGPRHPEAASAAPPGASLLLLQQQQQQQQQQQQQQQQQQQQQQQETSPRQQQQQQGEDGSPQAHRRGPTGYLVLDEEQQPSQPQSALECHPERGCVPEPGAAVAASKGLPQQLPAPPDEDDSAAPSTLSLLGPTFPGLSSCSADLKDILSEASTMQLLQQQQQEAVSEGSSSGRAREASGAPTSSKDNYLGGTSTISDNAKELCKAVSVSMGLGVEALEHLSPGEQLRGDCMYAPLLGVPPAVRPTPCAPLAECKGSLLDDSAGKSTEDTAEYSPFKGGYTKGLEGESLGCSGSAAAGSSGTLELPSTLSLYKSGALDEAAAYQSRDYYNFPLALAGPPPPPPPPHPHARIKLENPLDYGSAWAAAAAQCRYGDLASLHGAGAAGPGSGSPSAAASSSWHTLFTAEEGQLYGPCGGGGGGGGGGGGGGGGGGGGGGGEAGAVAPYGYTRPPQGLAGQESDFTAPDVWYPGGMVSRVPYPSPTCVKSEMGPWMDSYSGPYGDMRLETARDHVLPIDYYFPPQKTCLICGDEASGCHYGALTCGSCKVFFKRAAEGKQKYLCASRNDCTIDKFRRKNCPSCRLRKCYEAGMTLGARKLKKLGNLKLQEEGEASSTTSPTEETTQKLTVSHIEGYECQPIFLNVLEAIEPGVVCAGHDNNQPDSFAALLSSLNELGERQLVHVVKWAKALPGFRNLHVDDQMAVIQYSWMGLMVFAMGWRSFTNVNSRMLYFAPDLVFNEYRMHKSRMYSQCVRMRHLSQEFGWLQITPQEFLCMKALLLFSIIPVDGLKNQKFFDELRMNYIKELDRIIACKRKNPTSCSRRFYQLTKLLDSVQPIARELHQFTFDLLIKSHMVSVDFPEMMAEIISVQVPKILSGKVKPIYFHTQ

[2] = molecular target: T1, Androgen receptor (Homo sapiens); assay: Reduction in DHT-induced Androgen receptor activity
[3] = molecular target: T1, Androgen receptor (Homo sapiens); assay: Antagonistic activity against Androgen receptor in PC-3 human prostate cancer cells; type: functional, cell-based

## COC(=O)COc1ccc(/C=C/C(=O)/C=C(O)/C=C/c2ccc(OCC(=O)OC)c(OC)c2)cc1OC
[1]
  Reduction: 54%

## COc1ccc(CCC(=O)CC(=O)CCc2ccc(OC)c(OC)c2)cc1OC
[2]
  Reduction: 18%

## COc1ccc(/C=C/C(=O)/C=C(O)/C=C/c2ccc(OC)c(OC)c2)cc1OC
[1]
  Reduction: 45%
[3]
  Reduction: 70%

## COc1ccc(CCC(=O)CC(O)CCc2ccc(OC)c(OC)c2)cc1OC (stereo unspecified)
[2]
  Reduction: 18%

## CCOC(O)=C(C(=O)/C=C/c1ccc(O)c(OC)c1)C(=O)/C=C/c1ccc(O)c(OC)c1
[1]
  Reduction: 53.8%
